# Source: patent US20230416245A1, “ADENOSINE ANALOGS FOR THE TREATMENT OF DISEASE” (BIOINTERVENE, INC., priority 2020, published 2023)
# What was measured:
# ADORA3 = ADORA3 (Homo sapiens (Human), UniProt P0DMS8); experiment: Intracellular calcium release assay (FLIPR); format: cell-based; conditions: for EC50: CHO-K1 cells, Fluo-4, top concentration 10 μM, read-out: Cell Calcium Assay EC50; for Cell Calcium Efficacy (%): percentage of the response to NECA
# Description: Example 32: Intracellular Calcium Release Assay
# Cell Culture: The table below lists the cell lines used that stably express the 4 subtypes of adenosine receptors, along with the growth medium used for each:
# For experiments with the ADORA1- and ADORA3-expressing cells, the medium was aspirated and the cells washed twice with 10 mL DPBS. Two mL of trypsin was added and incubated at 37° C. for 1 minute. Then 10 mL of platting media was added to terminate the digestion and 1 mL of the solution was taken out for cell counting. ADORA2A- and ADORA2B-expressing cells were thawed rapidly in a 37° C. water bath. Cell suspensions were transferred to 50 mL conical tubes. Plating media was added to the 10 mL mark and then 1 mL taken out for cell counting. The 50 mL tubes containing the various types of cells were centrifuged at 1000 g. Then the supernatants were aspirated, being careful not to aspirate the cells. The cell pellets were resuspended in 3-5 mL platting media, then 0.5 mL was taken out for cell counting. Then the cell suspension was diluted to 1×10^6 cells/mL (20,000 cells per 20 μL per well) in platting medium, and cells were seeded into 384-well cell plates (Greiner-781946). The 384-well cell plate was placed in a 37° C./5% CO2 incubator (Thermo-371, Thermo Scientific) for 16-20 hours.
# Preparation of the intracellular calcium imaging agent (Fluo-4 Direct™ Calcium Assay Kit, Invitrogen-F10471, Thermo Scientific): One mL of FLIPR Assay Buffer was added to 77 mg probenecid to make a 250 mM solution, which was used fresh for each day. One vial of Fluo-4 Direct™ crystals was thawed and 10 mL of FLIPR Assay Buffer was added to the vial. 0.2 mL of probenecid was added to each 10 mL vial of Fluo-Direct™ solution, such that the final assay concentration was 2.5 mM. It was vortexed, left to stand >5 min and protected from light. The dye was prepared fresh each day.
# Compound Preparation: Compound plates were prepared as follows. First, the test compound was diluted to prepare a 2 mM solution and then 10-point 3-fold serial dilutions were made using ECHO (ECHO 555, LabCyte), then 900 nL was transferred to the compound plate. For all targets, the final top concentration of the test compound was […]. For agonist reference compounds, 10-point and 3-fold serial dilutions were made, then 900 nL was transferred to the assay plate. Then 30 μL of assay buffer was added to the compound plate and then the plate was centrifuged at 1000 rpm for 1 min.
# FLIPR Assay: Cell plates were removed from the incubator, to which were added 20 μL 2×Fluo-4 Direct™ solution, then the plates were reincubated in a 5% CO2, 37° C. incubator for 50 min and at RT for 10 min. To run the protocol on the Fluorescent Imaging Plate Reader (FLIPR) TETRA (MD-FT0249, Molecular Devices, Inc.), 10 μL of assay buffer was transferred from the 384-well plate (Greiner-781280) to the cell plates and then the fluorescence signal was read. Then 10 μL of compound solution was transferred from the compound plate to the cell plates and the fluorescence signal was read. The “Max-Min” was calculated, starting from Read 91 to the maximum allowed. For agonists, activation %=(RLU−LC)/(HC−LC)*100, based on the following: RLU=relative light unit, 91 to maximum allowed signal; HC=average signal of the high concentration of agonist; LC=average signal of DMSO well. The data were fitted using GraphPad Prism 5, using the model “log(agonist) vs. response—Variable slope” to determine the EC50 value. The receptor efficacy of the test compound relative to the agonist NECA was calculated as a percentage (%) of the response to […]. Table 10 includes EC50 values for compounds described herein.
# [1] = biological target: human adenosine A3 receptor (Homo sapiens (Human), UniProt P0DMS8); experiment: Adenosine receptor binding assay ([125I]-AB-MECA competition); conditions: inhibition of 0.15 nM [125I]-AB-MECA binding, membranes of cells expressing human A3 receptor; read-out: hA3 Ki: Ki
# Sequence of human adenosine A3 receptor (P0DMS8 whole entry): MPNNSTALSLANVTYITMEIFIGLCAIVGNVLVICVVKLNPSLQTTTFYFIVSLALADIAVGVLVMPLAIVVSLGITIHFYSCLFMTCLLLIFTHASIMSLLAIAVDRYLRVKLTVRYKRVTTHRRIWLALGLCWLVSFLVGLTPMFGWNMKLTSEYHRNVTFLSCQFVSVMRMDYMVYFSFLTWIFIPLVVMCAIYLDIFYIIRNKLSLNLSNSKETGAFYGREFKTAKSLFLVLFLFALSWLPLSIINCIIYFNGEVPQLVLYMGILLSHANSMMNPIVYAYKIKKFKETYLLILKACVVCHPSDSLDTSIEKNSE
# Text: Example 30: Adenosine Receptor Binding Assay
# Materials and Reference Compounds: [^125I]-AB-MECA and [^3H]CCPA are both obtained from Amersham Biosciences (Little Chalfont, UK). IB-MECA are obtained from Tocris (Bristol, UK) and N6-cyclopentyl adenosine (CPA) is obtained from Sigma-Alrich (Poole, UK). Cell culture media, G418 and hygromycin are obtained from Invitrogen (Paisley, UK). Fetal calf serum is obtained from Perbio Science (Cheshire, UK). All other reagents are obtained from Fisher Chemicals (Loughborough, UK).
# The method followed is that of Yates L, Clark J H, Martin T J, James S, Broadley K J, Kidd E J. Radioligand binding and functional responses of ligands for human recombinant adenosine A3 receptors. Auton Autacoid Pharmacol. 2006; 26(2):191-200. Cells stably transfected with the human adenosine A3 or A1 receptor are grown in Dulbecco's modified Eagles medium with nutrient mixture F12 containing NaHCO3 and Glutamax. Media is supplemented with 10% fetal calf serum, geneticin (G418; 0.67 mg/mL), hygromycin (500 μg/mL) and adenosine deaminase (1 U/mL). Cells are maintained at 37° C. with 5% CO2 in air. Cells are harvested and homogenized in ice-cold Tris buffer [50 mM Tris, 150 mM NaCl, 1 mM ethylenediaminetetraacetic acid (EDTA), pH 7.4] supplemented with the peptidase inhibitors, 4-(2-aminoethyl)benzenesulfonylfluoride (1 mM) and bacitracin (0.1 mg/mL), using a Polytron homogenizer (3×10 s bursts). The homogenate was spun for 10 min (4° C.) at 500 g. The supernatant is retained and the pellet is re-suspended in the buffer, homogenized and spun as above. The combined supernatants are centrifuged for 15 min (4° C.) at 48,000 g. The resultant pellet is re-suspended in the buffer and centrifuged for a second time at 48,000 g. The membrane pellet is then suspended in Tris buffer containing no peptidase inhibitors or adenosine deaminase and stored at −80° C. at a protein concentration of 1 mg/mL.
# Binding Assays: Radioligand-binding assays were performed using the adenosine A3 receptor agonist [^125I]-AB-MECA and the A1 receptor agonist [^3H]CCPA. Binding assays were conducted in a total volume of 100 μL containing a 50 mM Tris, pH 7.4 buffer with or without 10 mM MgCl2, 20 μg membranes and either 0.15 nM [^125I]-AB-MECA (for the A3 receptor) or 1 nM [^3H]CCPA (for the A1 receptor). Assays were conducted at room temperature for 60 min (A1 receptor) or 120 min (A3 receptor) and terminated by the addition of 2 ml of ice-cold wash buffer (50 mM Tris, pH 7.4 with or without 10 mM MgCl2) and rapid filtration over 0.03% polyethylenimine-treated Whatman GF/C filters using a Brandel cell harvester (Semat International Ltd., St Albans, UK). Filters were then washed three times with 2 ml of ice-cold buffer. The filter-bound radioactivity were counted using a Compugamma counter (LKB Wallac, Turku, Finland). Competition experiments were performed to investigate the ability of reference compounds and embodiments of the invention to inhibit [^125I]-AB-MECA binding. Non-specific binding were determined using the respective compound at its highest concentration.
# Data Analysis: The Kd and Bmax values for binding data were calculated based upon the molar amounts of bound and free [^125I]-AB-MECA. […] IC50 and Ki values and Hill slopes for inhibition of the radioligand binding by the compounds of the invention were calculated from the ligand competition curves using the Excel spreadsheet and the Kd value calculated for either [^125I]-AB-MECA or [^3H]CCPA. The results were expressed as a percent of control specific binding and as a percent inhibition of control specific binding obtained in the presence of the compounds of the invention. The IC50 values (concentration causing a half-maximal inhibition of control specific binding) and Hill coefficients (nH) were determined by non-linear regression analysis of the competition curves generated with mean replicate values using Hill equation curve fitting: […]
# Sequence of ADORA3 (P0DMS8 whole entry): as above
Compound,EC50 (ADORA3) [nM],Cell Calcium Efficacy (%) (ADORA3),Ki [1] [nM]
CNC(=O)[C@@]12C[C@@H]1[C@@H](n1cnc3c(NCC(F)F)cc(Cl)nc31)[C@H](O)[C@@H]2O [Compound 82],1.9,106,4.77
"CNC(=O)[C@@]12C[C@@H]1[C@@H](n1cnc3c(NCC(C)C)cc(Cl)nc31)[C@H](O)[C@@H]2O [Compound 83, (1S,2R,3S,4R,5S)-4-(5-chloro-7-(isobutylamino)-3H-imidazo[4,5-b]pyridin-3-yl)-2,3-dihydroxy-N-methylbicyclo[3.1.0]hexane-1-carboxamide]",,,1.62
"CNC(=O)[C@@]12C[C@@H]1[C@@H](n1cnc3c(NCCO)cc(Cl)nc31)[C@H](O)[C@@H]2O [Compound 91, (1S,2R,3S,4R,5S)-4-(5-chloro-7-((2-hydroxyethyl)amino)-3H-imidazo[4,5-b]pyridin-3-yl)-2,3-dihydroxy-N-methylbicyclo[3.1.0]hexane-1-carboxamide]",,,5.1

# The next lines start with the values.
EC50 (ADORA3) [nM],Cell Calcium Efficacy (%) (ADORA3),Ki [1] [nM],Compound
23.1,52,28.4,"O[C@@H]1[C@H](O)[C@@H]2C[C@@H]2[C@H]1n1cnc2c(NC3CCC3)cc(Cl)nc21 [Compound 44, (1R,2R,3S,4R,5S)-4-(5-chloro-7-(cyclobutylamino)-3H-imidazo[4,5-b]pyridin-3-yl)bicyclo[3.1.0]hexane-2,3-diol]"
29.5,22.5,1.3,"O[C@@H]1[C@H](O)[C@@H]2C[C@@H]2[C@H]1n1cnc2c(NCc3cc(F)ccc3F)cc(Cl)nc21 [Compound 45, (1R,2R,3S,4R,5S)-4-(5-chloro-7-((2,5-difluorobenzyl)amino)-3H-imidazo[4,5-b]pyridin-3-yl)bicyclo[3.1.0]hexane-2,3-diol]"
60,67.3,7.15,"O[C@@H]1[C@H](O)[C@@H]2C[C@@H]2[C@H]1n1cnc2c(NCC(F)F)c(F)c(Cl)nc21 [Compound 61, (1R,2R,3S,4R,5S)-4-(5-chloro-7-((2,2-difluoroethyl)amino)-6-fluoro-3H-imidazo[4,5-b]pyridin-3-yl)bicyclo[3.1.0]hexane-2,3-diol]"
,,2.42,"CNC(=O)[C@@]12C[C@@H]1[C@@H](n1cnc3c(N)cc(Cl)nc31)[C@H](O)[C@@H]2O [Compound 90, (1S,2R,3S,4R,5S)-4-(7-amino-5-chloro-3H-imidazo[4,5-b]pyridin-3-yl)-2,3-dihydroxy-N-methylbicyclo[3.1.0]hexane-1-carboxamide]"
,,26.8,"Nc1c(OCc2cccc(Cl)c2)c(Cl)nc2c1ncn2[C@H]1[C@H](O)[C@H](O)[C@@H]2C[C@@H]21 [Compound 92, (1R,2R,3S,4R,5S)-4-(7-amino-5-chloro-6-((3-chlorobenzyl)oxy)-3H-imidazo[4,5-b]pyridin-3-yl)bicyclo[3.1.0]hexane-2,3-diol]"
